From ChEMBL document CHEMBL4382259, “Synthesis of novel guttiferone E and xanthochymol derivatives with cytotoxicities by inducing cell apoptosis and arresting the cell cycle phase” (Eur J Med Chem, 2019)
pIC50: −log10 of the molar value.

How the values were obtained:
Type in all cases: functional, cell-based
HeLa = test: Antiproliferative activity against human HeLa cells after 72 hrs by MTT assay
MCF7 = test: Antiproliferative activity against human MCF7 cells after 72 hrs by MTT assay; conditions: MCF7, 72 h
HEL = test: Antiproliferative activity against HEL cells after 72 hrs by MTT assay; conditions: Homo sapiens
K562 = test: Antiproliferative activity against human K562 cells after 72 hrs by MTT assay; conditions: K562, 72 h
A549 = test: Antiproliferative activity against human A549 cells after 72 hrs by MTT assay; conditions: A549, 72 h

SMILES	pIC50 (HeLa)	pIC50 (MCF7)	pIC50 (K562)	pIC50 (A549)	pIC50 (HEL)
C=CCOc1ccc(C(=O)C2=C3OC(C)(C)[C@@H](CC=C(C)C)C[C@@]34C[C@@H](CC=C(C)C)C(C)(C)[C@@](CC=C(C)C)(C2=O)C4=O)cc1OCC=C	4.80	< 4.70	< 4.70	< 4.70	< 4.70
CC(C)=CC[C@H]1C[C@@]23C[C@@H](CC=C(C)C)C(C)(C)[C@@](CC=C(C)C)(C(=O)C(C(=O)c4ccc(OCc5ccccc5)c(O)c4)=C2OC1(C)C)C3=O	4.80	< 4.70	< 4.70	4.97	< 4.70
CC(C)=CC[C@H]1C[C@@]23C[C@@H](CC=C(C)C)C(C)(C)[C@@](CC=C(C)C)(C(=O)C(C(=O)c4ccc(O)c(OS(=O)(=O)c5ccc(C)cc5)c4)=C2OC1(C)C)C3=O	4.73	4.80	< 4.70	< 4.70	5.33
CC(C)=CC[C@H]1C[C@@]23C[C@@H](CC=C(C)C)C(C)(C)[C@@](CC=C(C)C)(C(=O)C(C(=O)c4ccc(O)c(OC(=O)CCCCCBr)c4)=C2OC1(C)C)C3=O	< 4.70	< 4.70	4.84	< 4.70	5.02
C#CCOc1ccc(C(=O)C2=C3OC(C)(C)[C@@H](CC=C(C)C)C[C@@]34C[C@@H](CC=C(C)C)C(C)(C)[C@@](CC=C(C)C)(C2=O)C4=O)cc1OCC#C	< 4.70	< 4.70	4.75	< 4.70	5.05
COc1cccc2c1C(=O)c1c(O)c3c(c(O)c1C2=O)C[C@@](O)(C(=O)CO)C[C@@H]3O[C@H]1C[C@H](N)[C@H](O)[C@H](C)O1 [DOXORUBICIN]	5.77	5.76	6.19	5.50	6.38
CC(C)=CC[C@H]1C[C@@]23C[C@@H](CC=C(C)C)C(C)(C)[C@@](CC=C(C)C)(C(=O)C(C(=O)c4ccc(OC(=O)c5cccs5)c(OC(=O)c5cccs5)c4)=C2OC1(C)C)C3=O	5.06	4.78	< 4.70	4.70	< 4.70
C=CC(=O)Oc1ccc(C(=O)C2=C3OC(C)(C)[C@@H](CC=C(C)C)C[C@@]34C[C@@H](CC=C(C)C)C(C)(C)[C@@](CC=C(C)C)(C2=O)C4=O)cc1OC(=O)C=C	5.00	5.40	< 4.70	4.86	< 4.70
CCCCCC(=O)Oc1ccc(C(=O)C2=C3OC(C)(C)[C@@H](CC=C(C)C)C[C@@]34C[C@@H](CC=C(C)C)C(C)(C)[C@H]3CCC(C)(C)O[C@]34OC2=O)cc1OC(=O)CCCCC	4.81	4.78	< 4.70	4.72	4.70
C=C(C)[C@@H](CC=C(C)C)C[C@@]12C[C@@H](CC=C(C)C)C(C)(C)[C@@](CC=C(C)C)(C(=O)c3c1oc1cc(O)c(O)cc1c3=O)C2=O	< 4.70	< 4.70	4.98	< 4.70	5.35
CCC(=O)Oc1ccc(C(=O)C2=C3OC(C)(C)[C@@H](CC=C(C)C)C[C@@]34C[C@@H](CC=C(C)C)C(C)(C)[C@H]3CCC(C)(C)O[C@]34OC2=O)cc1OC(=O)CC	4.81	< 4.70	< 4.70	< 4.70	5.02
C=CCOc1ccc(C(=O)C2=C3OC(C)(C)[C@@H](CC=C(C)C)C[C@@]34C[C@@H](CC=C(C)C)C(C)(C)[C@@](CC=C(C)C)(C2=O)C4=O)cc1O	4.83	4.94	< 4.70	< 4.70	< 4.70
CC(C)=CCOc1ccc(C(=O)C2=C3OC(C)(C)[C@@H](CC=C(C)C)C[C@@]34C[C@@H](CC=C(C)C)C(C)(C)[C@@](CC=C(C)C)(C2=O)C4=O)cc1OCC=C(C)C	< 4.70	< 4.70	< 4.70	4.76	< 4.70
CC(C)=CC[C@H]1C[C@@]23C[C@@H](CC=C(C)C)C(C)(C)[C@@](CC=C(C)C)(C(=O)C(C(=O)c4ccc(O)c(OC(=O)c5ccccc5)c4)=C2OC1(C)C)C3=O	5.21	5.00	4.86	5.03	5.02
CC(C)=CC[C@H]1C[C@@]23C[C@@H](CC=C(C)C)C(C)(C)[C@@](CC=C(C)C)(C(=O)C(C(=O)c4ccc(O)c(O)c4)=C2OC1(C)C)C3=O [CAMBOGIN]	4.78	4.99	4.85	4.72	5.03
CCCCCCCC(=O)Oc1cc(C(=O)C2=C3OC(C)(C)[C@@H](CC=C(C)C)C[C@@]34C[C@@H](CC=C(C)C)C(C)(C)[C@H]3CCC(C)(C)O[C@]34OC2=O)ccc1O	< 4.70	< 4.70	4.81	< 4.70	4.73
CC(C)=CCOc1ccc(C(=O)C2=C3OC(C)(C)[C@@H](CC=C(C)C)C[C@@]34C[C@@H](CC=C(C)C)C(C)(C)[C@@](CC=C(C)C)(C2=O)C4=O)cc1O	4.92	4.73	< 4.70	< 4.70	< 4.70
CC(C)=CC[C@H]1C[C@@]23C[C@@H](CC=C(C)C)C(C)(C)[C@@](CC=C(C)C)(C(=O)C(C(=O)c4ccc(OCCCCCBr)c(O)c4)=C2OC1(C)C)C3=O	4.81	5.03	< 4.70	< 4.70	< 4.70
CC(C)=CC[C@H]1C[C@@]23C[C@@H](CC=C(C)C)C(C)(C)[C@@](CC=C(C)C)(C(=O)C(C(=O)c4ccc(OCCCCCN5CCOCC5)c(O)c4)=C2OC1(C)C)C3=O	< 4.70	4.80	< 4.70	< 4.70	< 4.70
CC(C)=CC[C@H]1C[C@@]23C[C@@H](CC=C(C)C)C(C)(C)[C@@](CC=C(C)C)(C(=O)C(C(=O)c4ccc(OC(=O)CCCCCBr)c(OC(=O)CCCCCBr)c4)=C2OC1(C)C)C3=O	< 4.70	< 4.70	< 4.70	< 4.70	< 4.70
CCC(=O)Oc1cc(C(=O)C2=C3OC(C)(C)[C@@H](CC=C(C)C)C[C@@]34C[C@@H](CC=C(C)C)C(C)(C)[C@H]3CCC(C)(C)O[C@]34OC2=O)ccc1O	< 4.70	< 4.70	4.92		5.01

Further lines, with some results ahead:

pIC50 (HeLa)	pIC50 (MCF7)	pIC50 (K562)	pIC50 (A549)	SMILES	pIC50 (HEL)
< 4.70	< 4.70	< 4.70	< 4.70	COc1ccc(C(=O)Oc2ccc(C(=O)C3=C4OC(C)(C)[C@@H](CC=C(C)C)C[C@@]45C[C@@H](CC=C(C)C)C(C)(C)[C@H]4CCC(C)(C)O[C@]45OC3=O)cc2OC(=O)c2ccc(OC)cc2)cc1	< 4.70
5.27	5.32	< 4.70	4.91	CC(=O)Oc1ccc(C(=O)C2=C3OC(C)(C)[C@@H](CC=C(C)C)C[C@@]34C[C@@H](CC=C(C)C)C(C)(C)[C@H]3CCC(C)(C)O[C@]34OC2=O)cc1OC(C)=O	< 4.70
4.71	< 4.70	4.97	< 4.70	C=CC(=O)Oc1cc(C(=O)C2=C3OC(C)(C)[C@@H](CC=C(C)C)C[C@@]34C[C@@H](CC=C(C)C)C(C)(C)[C@@](CC=C(C)C)(C2=O)C4=O)ccc1O	5.33
< 4.70	< 4.70	< 4.70	< 4.70	CC(C)=CC[C@H]1C[C@@]23C[C@@H](CC=C(C)C)C(C)(C)[C@@](CC=C(C)C)(C(=O)C(C(=O)c4ccc(OCCCCCBr)c(OCCCCCBr)c4)=C2OC1(C)C)C3=O	< 4.70
4.97	< 4.70	4.86	< 4.70	CC(C)=CC[C@H]1C[C@@]23C[C@@H](CC=C(C)C)C(C)(C)[C@@](CC=C(C)C)(C(=O)C(C(=O)c4ccc(O)c(OC(=O)c5cccs5)c4)=C2OC1(C)C)C3=O	5.02
4.92	4.78	< 4.70	4.93	CC(C)=CC[C@H]1C[C@]23C[C@@H](CC=C(C)C)C(C)(C)[C@H]4CCC(C)(C)O[C@]42OC(=O)C(C(=O)c2ccc(OC(=O)c4ccc(F)cc4)c(OC(=O)c4ccc(F)cc4)c2)=C3OC1(C)C	< 4.70
4.96	< 4.70	4.84	< 4.70	COc1ccc(C(=O)C2=C3OC(C)(C)[C@@H](CC=C(C)C)C[C@@]34C[C@@H](CC=C(C)C)C(C)(C)[C@@](CC=C(C)C)(C2=O)C4=O)cc1O	4.87
< 4.70	< 4.70	< 4.70	< 4.70	C=C(C)[C@@H](CC=C(C)C)C[C@]12C[C@@H](CC=C(C)C)C(C)(C)[C@](CC=C(C)C)(C1=O)c1oc3cc(O)c(O)cc3c(=O)c1C2=O	< 4.70
< 4.70	4.81	4.87	4.71	CCCCCC(=O)Oc1cc(C(=O)C2=C3OC(C)(C)[C@@H](CC=C(C)C)C[C@@]34C[C@@H](CC=C(C)C)C(C)(C)[C@H]3CCC(C)(C)O[C@]34OC2=O)ccc1O	5.02
< 4.70	< 4.70	< 4.70	< 4.70	CC(C)=CC[C@H]1C[C@]23C[C@@H](CC=C(C)C)C(C)(C)[C@H]4CCC(C)(C)O[C@]42OC(=O)C(C(=O)c2ccc(OC(=O)c4ccccc4)c(OC(=O)c4ccccc4)c2)=C3OC1(C)C	< 4.70
4.71	< 4.70	< 4.70	< 4.70	COc1ccc(C(=O)C2=C3OC(C)(C)[C@@H](CC=C(C)C)C[C@@]34C[C@@H](CC=C(C)C)C(C)(C)[C@@](CC=C(C)C)(C2=O)C4=O)cc1OC	< 4.70
< 4.70	< 4.70	< 4.70	< 4.70	C#CCOc1ccc(C(=O)C2=C3OC(C)(C)[C@@H](CC=C(C)C)C[C@@]34C[C@@H](CC=C(C)C)C(C)(C)[C@@](CC=C(C)C)(C2=O)C4=O)cc1O	< 4.70
